The values that follow come from patent US20130225633A1, “PHENYL HETEROCYCLOALKYL GLUCOCORTICOID RECEPTOR MODULATORS” (Corcept Therapeutics, Inc., priority 2012, published 2013).

The target in assay [1] is T1, human recombinant glucocorticoid receptor (Homo sapiens, UniProt P04150).
T1 construct: This GR was a full-length steroid hormone receptor; host or cells: baculovirus-infected insect cells
T1 sequence (P04150 1-777): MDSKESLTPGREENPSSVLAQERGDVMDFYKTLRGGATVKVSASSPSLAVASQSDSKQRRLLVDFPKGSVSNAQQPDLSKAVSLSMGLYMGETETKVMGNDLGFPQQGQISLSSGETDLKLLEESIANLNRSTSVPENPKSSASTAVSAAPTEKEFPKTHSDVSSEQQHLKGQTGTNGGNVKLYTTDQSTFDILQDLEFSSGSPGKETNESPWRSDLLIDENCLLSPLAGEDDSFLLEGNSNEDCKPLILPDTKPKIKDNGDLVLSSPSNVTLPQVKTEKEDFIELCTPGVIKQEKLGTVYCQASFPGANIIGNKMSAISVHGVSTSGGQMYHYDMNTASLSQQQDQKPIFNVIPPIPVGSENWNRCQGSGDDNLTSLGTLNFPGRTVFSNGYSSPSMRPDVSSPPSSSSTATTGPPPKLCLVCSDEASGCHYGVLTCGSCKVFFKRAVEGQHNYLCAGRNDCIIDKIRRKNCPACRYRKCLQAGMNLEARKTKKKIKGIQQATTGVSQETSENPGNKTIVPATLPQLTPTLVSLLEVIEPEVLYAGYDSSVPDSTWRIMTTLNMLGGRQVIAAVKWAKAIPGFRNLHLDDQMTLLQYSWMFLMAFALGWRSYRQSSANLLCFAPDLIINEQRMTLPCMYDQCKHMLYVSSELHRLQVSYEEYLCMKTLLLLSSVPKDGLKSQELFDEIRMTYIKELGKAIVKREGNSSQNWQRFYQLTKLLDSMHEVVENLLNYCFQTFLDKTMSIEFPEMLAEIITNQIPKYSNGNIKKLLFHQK
Put plainly: Glucocorticoid receptor binding displacement assay with 3H-dexamethasone (Example 22). As to conditions: Examples 1-15: 3H-dexamethasone displacement assay of Example 22; read-out: GR binding Ki. The protocol: Binding protocol: Compounds were tested in a binding displacement assay using human recombinant glucocorticoid receptor with ^3H-dexamethasone as the ligand. The source of the receptor was recombinant baculovirus-infected insect cells. This GR was a full-length steroid hormone receptor likely to be associated with heat-shock and other endogenous proteins.
For the IC50 determinations, test compounds were tested at 6 concentrations in duplicate. Test compounds were diluted from 10 mM stock in 100% DMSO. The tested solutions were prepared at 2× final assay concentration in 2% DMSO/assay buffer.
All reagents and the assay plate were kept on ice during the addition of reagents. The reagents were added to wells of a v-bottomed polypropylene plate in the following order: 25 μl of 10 nM 3H-dexamethasone solution, 50 μl of TB/NSB/compound solution and 25 μl of 2 nM GR solution. After the additions, the incubation mixture was mixed and incubated for 2.5 hrs at 4° C.
After 2.5 hrs incubation, unbound counts were removed with dextran coated charcoal (DCC) as follows: 15 μl of DCC solution (10% DCC in assay buffer) was added to all wells and mixed (total volume 115 μl). The plate was centrifuged at 4000 rpm for 10 minutes at 4° C. 75 μl of the supernatants was carefully pipetted into an optiplate. 150 μl of scintillation cocktail were added (Microscint-40, Perkin Elmer). The plate was vigorously shaken for approximately 10 minutes and counted on a Topcount.
The IC50 values were converted to Ki (the inhibition constant) using the Cheng-Prusoff equation.
Reagents: Assay buffer: 10 mM potassium phosphate buffer pH 7.6 containing 5 mM DTT, 10 mM sodium molybdate, 100 μM EDTA and 0.1% BSA.

In assay [2] the target is T2, glucocorticoid receptors (GR) in SW1353/MMTV-5 cells (Homo sapiens, UniProt P04150).
T2 construct: contains endogenous glucocorticoid receptors; endogenous in cells; host or cells: SW1353/MMTV-5 (human chondrosarcoma, stably transfected with pMAMneo-Luc reporter only)
T2 sequence (P04150 1-777): T1 sequence (P04150 1-777)
In words: GR reporter gene assay using SW1353/MMTV-5 cells (Example 24). The assay is classed as cell-based. The protocol:
SW1353/MMTV-5 is an adherent human chondrosarcoma cell line that contains endogenous glucocorticoid receptors. It was transfected with a plasmid (pMAMneo-Luc) encoding firefly luciferase located behind a glucocorticoid-responsive element (GRE) derived from a viral promoter (long terminal repeat of mouse mammary tumor virus). A stable cell line SW1353/MMTV-5 was selected with geneticin, which was required to maintain this plasmid.
SW1353/MMTV-5 cells were distributed in 96-well plates and incubated in medium (without geneticin) for 24 hrs.

Structures are written as SMILES.

Consider `O=S(=O)(c1cccc(N2CC[C@@H](F)C2)c1)N1CCC2=Cc3c(cnn3-c3ccc(F)cc3)C[C@]2(COCC2CC2)C1` [Example 1, (R)-4a-Cyclopropylmethoxymethyl-1-(4-fluorophenyl)-6-[3-((R)-3-fluoropyrrolidin-1-yl)-benzenesulfonyl]-4,4a,5,6,7,8-hexahydro-1H-1,2,6-triaza-cyclopenta[b]naphthalene], for which the figures for the Ki in assay [1] and in assay [2] were at least 1 nM and below 10 nM, respectively.

Consider `O=S(=O)(c1cccc(N2CC[C@H](F)C2)c1)N1CCC2=Cc3c(cnn3-c3ccc(F)cc3)C[C@]2(COCC2CC2)C1` [Example 2, (R)-4a-Cyclopropylmethoxymethyl-1-(4-fluorophenyl)-6-[3-((S)-3-fluoropyrrolidin-1-yl)-phenyl-3-sulfonyl]-4,4a,5,6,7,8-hexahydro-1H-1,2,6-triaza-cyclopenta[b]naphthalene], for which the Ki in assay [1] was 0.5 to 1 nM; in assay [2], below 10 nM.

Consider `O=S(=O)(c1cccc(N2CCCC2)c1)N1CCC2=Cc3c(cnn3-c3ccc(F)cc3)C[C@]2(COCC2CC2)C1` [Example 3, (R)-4a-Cyclopropylmethoxymethyl-1-(4-fluorophenyl)-6-[3-(pyrrolidin-1-yl)-benzenesulfonyl]-4,4a,5,6,7,8-hexahydro-1H-1,2,6-triaza-cyclopenta[b]naphthalene], for which the Ki in assay [1] is at least 1 nM; in assay [2], below 10 nM.

For `COC[C@]12Cc3cnn(-c4ccc(F)cc4)c3C=C1CCN(S(=O)(=O)c1cccc(N3CC[C@@H](F)C3)c1)C2` [Example 4, (R)-1-(4-Fluorophenyl)-6-[3-((R)-3-fluoropyrrolidin-1-yl)-benzenesulfonyl]-4a-methoxymethyl-4,4a,5,6,7,8-hexahydro-1H-1,2,6-triaza-cyclopenta[b]naphthalene], the Ki was at least 1 nM in assay [1] and 10 to 20 nM in assay [2].

Turning to `COC[C@]12Cc3cnn(-c4ccc(F)cc4)c3C=C1CCN(S(=O)(=O)c1cccc(N3CC[C@H](F)C3)c1)C2` [Example 5, (R)-1-(4-Fluorophenyl)-6-[3-((S)-3-fluoropyrrolidin-1-yl)-benzenesulfonyl]-4a-methoxymethyl-4,4a,5,6,7,8-hexahydro-1H-1,2,6-triaza-cyclopenta[b]naphthalene], the Ki in assay [1] was 0.5 to 1 nM; in assay [2], below 10 nM.

As to `COC[C@]12Cc3cnn(-c4ccc(F)cc4)c3C=C1CCN(S(=O)(=O)c1cccc(N3CCCC3)c1)C2` [Example 6, (R)-1-(4-Fluoro-phenyl)-4a-methoxymethyl-6-[3-(pyrrolidin-1-yl)-benzenesulfonyl)-4,4a,5,6,7,8-hexahydro-1H-1,2,6-triaza-cyclopenta[b]naphthalene], the Ki in assay [1] lay in the range of 0.5 to 1 nM; in assay [2], 10 to 20 nM.

Take `O=S(=O)(c1ccc(N2CC[C@@H](F)C2)cc1)N1CCC2=Cc3c(cnn3-c3ccc(F)cc3)C[C@]2(COCC2CC2)C1` [Example 7, (R)-4a-Cyclopropylmethoxymethyl-1-(4-fluoro-phenyl)-6-[4-((R)-3-fluoro-pyrrolidin-1-yl)-benzenesulfonyl]-4,4a,5,6,7,8-hexahydro-1H-1,2,6-triaza-cyclopenta[b]naphthalene]: the Ki in assay [1] is below 0.5 nM; in assay [2] it was below 10 nM.

As to `O=S(=O)(c1ccc(N2CCCC2)cc1)N1CCC2=Cc3c(cnn3-c3ccc(F)cc3)C[C@]2(COCC2CC2)C1` [Example 8, (R)-4a-Cyclopropylmethoxymethyl-1-(4-fluoro-phenyl)-6-[4-(pyrrolidin-1-yl)-benzenesulfonyl]-4,4a,5,6,7,8-hexahydro-1H-1,2,6-triaza-cyclopenta[b]naphthalene], the values for the Ki in assay [1] and in assay [2] were at least 1 nM and below 10 nM, respectively.

As to `COC[C@]12Cc3cnn(-c4ccc(F)cc4)c3C=C1CCN(S(=O)(=O)c1ccc(N3CC[C@@H](F)C3)cc1)C2` [Example 9, (R)-1-(4-Fluoro-phenyl)-6-[4-((R)-3-fluoro-pyrrolidin-1-yl)-benzenesulfonyl]-4a-methoxymethyl-4,4a,5,6,7,8-hexahydro-1H-1,2,6-triaza-cyclopenta[b]naphthalene], the Ki lay within 0.5 to 1 nM in assay [1] and 10 to 20 nM in assay [2].

For the compound `COC[C@]12Cc3cnn(-c4ccc(F)cc4)c3C=C1CCN(S(=O)(=O)c1ccc(N3CCCC3)cc1)C2` [Example 10, (R)-1-(4-Fluoro-phenyl)-6-[4-(pyrrolidin-1-yl)-benzenesulfonyl]-4a-methoxymethyl-4,4a,5,6,7,8-hexahydro-1H-1,2,6-triaza-cyclopenta[b]naphthalene], the Ki was 0.5 to 1 nM in assay [1] and above 20 nM in assay [2].

As to `CCOC(=O)[C@]12Cc3cnn(-c4ccc(F)cc4)c3C=C1CCN(S(=O)(=O)c1cccc(N3CC[C@@H](F)C3)c1)C2` [Example 11, (R)-1-(4-Fluoro-phenyl)-6-[3-((R)-3-fluoro-pyrrolidin-1-yl)-benzenesulfonyl]-1,4,5,6,7,8-hexahydro-1,2,6-triaza-cyclopenta[b]naphthalene-4a-carboxylic acid ethyl ester], the values for the Ki in assay [1] and in assay [2] were 0.5 to 1 nM and 10 to 20 nM, respectively.

As to `COC(=O)[C@]12Cc3cnn(-c4ccc(F)cc4)c3C=C1CCN(S(=O)(=O)c1cccc(N3CC[C@@H](F)C3)c1)C2` [Example 12, (R)-1-(4-Fluoro-phenyl)-6-[3-((R)-3-fluoro-pyrrolidin-1-yl)-benzenesulfonyl]-1,4,5,6,7,8-hexahydro-1,2,6-triaza-cyclopenta[b]naphthalene-4a-carboxylic acid methyl ester], the Ki in assay [1] was at least 1 nM; in assay [2], above 20 nM.

For `O=C(OCF)[C@]12Cc3cnn(-c4ccc(F)cc4)c3C=C1CCN(S(=O)(=O)c1cccc(N3CC[C@@H](F)C3)c1)C2` [Example 13, (R)-1-(4-Fluoro-phenyl)-6-[3-((R)-3-fluoro-pyrrolidin-1-yl)-benzenesulfonyl]-1,4,5,6,7,8-hexahydro-1,2,6-triaza-cyclopenta[b]naphthalene-4a-carboxylic acid fluoromethyl ester], the values for the Ki in assay [1] and in assay [2] were 0.5 to 1 nM and above 20 nM, respectively.

Regarding `CCOC(=O)[C@]12Cc3cnn(-c4ccc(F)cc4)c3C=C1CCN(S(=O)(=O)c1cccc(N3CCCC3)c1)C2` [Example 14, (R)-1-(4-Fluoro-phenyl)-6-[3-(pyrrolidin-1-yl)-benzenesulfonyl]-1,4,5,6,7,8-hexahydro-1,2,6-triaza-cyclopenta[b]naphthalene-4a-carboxylic acid ethyl ester], the Ki in assay [1] was in the range of 0.5 to 1 nM; in assay [2], 10 to 20 nM.

On to `O=C(OCF)[C@]12Cc3cnn(-c4ccc(F)cc4)c3C=C1CCN(S(=O)(=O)c1cccc(N3CCCC3)c1)C2` [Example 15, (R)-1-(4-Fluoro-phenyl)-6-[3-(pyrrolidin-1-yl)-benzenesulfonyl]-1,4,5,6,7,8-hexahydro-1,2,6-triaza-cyclopenta[b]naphthalene-4a-carboxylic acid fluoromethyl ester], for which the Ki in assay [1] was 0.5 to 1 nM; in assay [2], above 20 nM.
